# Source: US6689596B2, “High level expression of human cyclooxygenase-2” (Merck & Co., Inc., priority 1992, dated 2004)
# Assays:
# [1] = biological target: T1, cyclooxygenase-2 (osteosarcoma 143.98.2 microsomes) (Homo sapiens, UniProt P35354); test: Microsomal cyclooxygenase assay, osteosarcoma 143.98.2 microsomes; type: biochemical; conditions: 20 μM arachidonic acid
# T1 construct: The cell homogenates were then subjected to a differential centrifugation protocol to yield an enriched microsomal preparation; endogenous in cells; host or cells: microsomal fraction of human osteosarcoma 143.98.2 cells
# T1 sequence (P35354 18-604): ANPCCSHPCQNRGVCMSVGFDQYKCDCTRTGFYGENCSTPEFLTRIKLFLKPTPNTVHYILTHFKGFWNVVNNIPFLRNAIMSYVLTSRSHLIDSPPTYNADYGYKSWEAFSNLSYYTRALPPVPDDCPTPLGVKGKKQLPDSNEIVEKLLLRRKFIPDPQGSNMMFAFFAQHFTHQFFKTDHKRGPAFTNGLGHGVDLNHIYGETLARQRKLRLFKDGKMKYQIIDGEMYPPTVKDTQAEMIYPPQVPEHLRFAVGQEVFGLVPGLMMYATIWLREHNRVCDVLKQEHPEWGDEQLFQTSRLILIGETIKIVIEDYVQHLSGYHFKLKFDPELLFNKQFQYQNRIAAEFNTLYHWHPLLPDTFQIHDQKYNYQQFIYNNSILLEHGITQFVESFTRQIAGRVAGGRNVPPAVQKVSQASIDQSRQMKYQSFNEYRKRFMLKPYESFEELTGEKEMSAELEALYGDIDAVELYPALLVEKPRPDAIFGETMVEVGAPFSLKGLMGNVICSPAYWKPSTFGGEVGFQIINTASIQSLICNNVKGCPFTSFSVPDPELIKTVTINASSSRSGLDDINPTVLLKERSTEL
# Method: Human osteosarcoma cells may be grown and maintained in culture as described above. Approximately 10^5 to 10^7 cells are plated in tissue culture plates such as available from NUNCLON and maintained in culture for 2 to 7 days. Cells may be washed with a suitable buffer such phosphate buffered saline, (PBS), pH 7.2. Cells are then removed from the plate, preferably by scraping into PBS. Samples may then be concentrated, such as by centrifuging at 400× g for 10 minutes at 4° C. Cell pellets or other concentrates are either stored at a suitable reduced temperature such as −80° C., or processed immediately. All further manipulations of the cells are preferably performed at 0-4° C. […] Enriched microsomal preparations are then prepared, such as by differential centrifugation to yield an enriched microsomal preparation. In our preferred procedure, the first step consists of four sequential centrifugations of the cell homogenate at 10,000× g for 10 min at 4° C. After each centrifugation at 10,000×.g, the supernatant is retained and recentrifuged. Following the fourth centrifugation, the supernatant is centrifuged at 100,000× g for 60-90 min at 4° C. to pellet the microsomal fraction. […] The resulting microsomal suspension is recentrifuged such as at 100,000× g for 90 min at 4° C. to recover the microsomes. Following this centrifugation the microsomal pellet is resuspended in a stabilizing buffer, such as 0.1 M Tris-Cl, pH 7.4, containing 10 mM EDTA at a protein concentration of approximately 2-5 mg/ml. Aliquots of osteosarcoma microsomal preparations may be stored at low temperature, such as at −80° C. and thawed prior to use.
# (§1) Microsomal preparations from Human osteosarcoma and U937 cells are diluted in buffer, such as 0.1 M Tris-HCl, 10 mM EDTA, pH 7.4, (Buffer A) to a protein concentration of 50 to 500 µg/ml. […] Typically, assays are performed in either duplicate or triplicate. Peroxide-free arachidonic acid (CAYMAN) in Buffer A is then added to a final concentration of 20 μM arachidonic acid, followed by incubation, preferably at room temperature for 10 to 60 minutes. Control samples contained ethanol or other vehicle instead of arachidonic acid. Following incubation, the reaction was terminated by addition of HCl or other mineral acid. Prior to analysis of PGE2 levels, samples were neutralized. Levels of PGE2 in samples may be quantitated as described for the whole cell cyclooxygenase assay.
# Cells were washed twice with 100 ml of phosphate buffered saline, pH 7.2, (PBS) and then scraped from the plate with a sterile rubber scraper into PBS. Samples were then centrifuged at 400× g for 10 minutes at 4° C. Cell pellets were either stored at −80° C. until use or processed immediately. All further manipulations of the cells were performed at 0-4° C. […] The cell homogenates were then subjected to a differential centrifugation protocol to yield an enriched microsomal preparation. The first step consisted of four sequential centrifugations of the cell homogenate at 10,000× g for 10 min at 4° C. After each centrifugation at 10,000× g the supernatant was retained and recentrifuged. Following the fourth centrifugation, the supernatant was centrifuged at 100,000× g for 60-90 min at 4° C. to pellet the microsomal fraction. […] The resulting microsomal suspension was recentrifuged at 100,000× g for 90 min at 4° C. to recover the microsomes. […] 500 μl aliquots of osteosarcoma microsomal preparations were stored at −80° C. and thawed on ice immediately prior to use.
# All subsequent assay steps, including the dilution of stock solutions of test compounds, were automated using the BIOMEK 100 (BIORAD). 5 μl of test compound or DMSO vehicle was added, with mixing, to 20 μl of buffer A in a 96-well minitube plate (BECKMAN).
# [2] = biological target: T2, cyclooxygenase-1 (U-937 microsomes) (Homo sapiens, UniProt P23219); test: Microsomal cyclooxygenase assay, U-937 microsomes; type: biochemical; conditions: 20 μM arachidonic acid
# T2 construct: host or cells: microsomal fraction of U-937 cells
# T2 sequence (P23219 24-599): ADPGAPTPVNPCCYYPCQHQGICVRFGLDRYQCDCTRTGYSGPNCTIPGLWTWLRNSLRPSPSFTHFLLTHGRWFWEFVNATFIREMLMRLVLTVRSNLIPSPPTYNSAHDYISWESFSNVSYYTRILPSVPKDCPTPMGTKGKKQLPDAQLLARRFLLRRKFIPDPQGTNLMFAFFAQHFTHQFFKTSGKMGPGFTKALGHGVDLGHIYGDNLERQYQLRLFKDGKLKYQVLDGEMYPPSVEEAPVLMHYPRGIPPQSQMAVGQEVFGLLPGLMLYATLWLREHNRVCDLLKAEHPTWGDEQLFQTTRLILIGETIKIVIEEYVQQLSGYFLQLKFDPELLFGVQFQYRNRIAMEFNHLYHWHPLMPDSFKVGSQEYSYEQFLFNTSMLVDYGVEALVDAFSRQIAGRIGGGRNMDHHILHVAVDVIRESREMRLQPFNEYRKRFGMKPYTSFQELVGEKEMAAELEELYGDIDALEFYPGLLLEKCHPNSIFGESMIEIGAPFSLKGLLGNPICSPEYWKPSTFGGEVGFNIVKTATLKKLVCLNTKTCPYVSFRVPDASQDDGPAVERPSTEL
# Method: COX-1 cells are grown and maintained in culture as described above, washed in a suitable buffer, such as PBS, and cell pellets or concentrates stored, preferably at −80° C. […] The cell homogenate is then concentrated and resuspended. In our preferred procedure the cell homogenate is centrifuged at 10,000× g for 10 minutes at 4° C. The supernatant fraction is then recentrifuged at 100,000× g for 2 hours at 4° C., and the resulting microsomal pellet resuspended in a suitable buffer, such as 0.1 M Tris-HCl, 1 mM EDTA, pH 7.4 to a protein concentration of approximately 1 to 10 mg/ml. Aliquots of osteosarcoma microsomal preparations may be stored at reduced temperature and thawed prior to use.
# as §1
# U-937 cells were grown and maintained in culture as described above, washed in PBS, and cell pellets frozen at −80° C. […] The cell homogenate was then centrifuged at 10,000× g for 10 minutes at 4° C. The supernatant fraction was then recentrifuged at 100,000× g for 2 hours at 4° C., and the resulting microsomal pellet resuspended in 0.1 M Tris-HCl, 1 mM EDTA, pH 7.4 to a protein concentration of approximately 4 mg/ml. 500 μl aliquots of osteosarcoma microsomal preparations were stored at −80° C. and thawed on ice immediately prior to use.
# All subsequent assay steps, including the dilution of stock solutions of test compounds, were automated using the BIOMEK 100 (BIORAD). 5 μl of test compound or DMSO vehicle was added, with mixing, to 20 μl of buffer A in a 96-well minitube plate (BECKMAN). 200 μl of microsome suspension was then added, followed by mixing and incubation for 5 minutes at room temperature. Assays were performed in either duplicate or triplicate. […] of peroxide-free arachidonic acid (CAYMAN) in buffer A is then added to a final concentration of 20 μM aracidonic acid, with mixing, followed by incubation at room temperature for 40 minutes. Control samples contained ethanol vehicle instead of arachidonic acid. Following the incubation period, the reaction was terminated by the addition of 25 μl of 1N HCl, with mixing. Prior to analysis of PGE2 levels, samples were neutralized by the addition of 25 μl of 1 N NaOH. Levels of PGE2 in samples were quantitated by enzyme immunoassay (CAYMAN) as described for the whole cell cyclooxygenase assay.
# osteosarcoma 143 cells = test: PGE2 synthesis by osteosarcoma 143 cells in response to arachidonic acid after treatment with growth factors/cytokines; type: cell-based, human; conditions: 10 pg/ml; within a 3-hour period, 1% serum; relative to cells grown in the absence of these factors
# [3] = biological target: T3, cyclooxygenase-1 (U-937 cells) (Homo sapiens, UniProt P23219); test: Whole cell cyclooxygenase assay, PGE2 synthesis by U-937 cells in response to exogenous arachidonic acid; type: cell-based
# T3 construct: the appropriate number of U-937 cells were removed from spinner cultures and centrifuged; host or cells: U-937 human histiocytic lymphoma cells (intact)
# T3 sequence (P23219 24-599): as above
# Method: Such cells are hereinafter described as COX-1 cells. Prior to assay, the appropriate number of COX-1 cells (10^5 to 10^7 cells/ml) are removed from cultures and concentrated using a technique such as by centrifugation at 300× g for 10 minutes. The supernatant is decanted and cells are washed in a suitable buffer. […] Following incubation of human osteosarcoma cells or COX-1 cells in a suitable buffer, a test compound and/or vehicle samples (such as DMSO) is added, and the resulting composition gently mixed. Preferably the assay is performed in triplicate. Arachidonic acid is then added in proportions as described above. […] Control samples should contain ethanol or other vehicle instead of arachidonic acid. […] For osteosarcoma cells, reactions may be stopped by the addition HCl or other acid, preferably combined with mixing, or by the rapid removal of media directly from cell monolayers. For U-937 cells, reactions may be advantageously be performed in multiwell dishes or microcentrifuge tubes and stopped by the addition of HCl or another mineral acid. Typically, samples assayed in 24-multidishes are then transferred to microcentrifuge tubes, and all samples frozen on dry ice. Similarly, samples are typically stored at -20° C. or below prior to analysis of PGE2 levels. […] Samples are then preferably mixed, such as by vortexing, and PGE2 levels measured using a PGE2 enzyme immunoassay, such as is commercially available from CAYMAN. We have advantageously conducted the plating, washing and color development steps as an automated sequence using a BIOMEK 1000 (BECKMAN). […] Levels of PGE2 are calculated from the standard curve, and may optionally determined using BECKMAN IMMUNOFIT EIA/RIA analysis software. […] Inhibition of PGE2 synthesis by test compounds is calculated between PGE2 levels in samples incubated in the absence or presence of […]. […] For routine subculturing, cells were diluted in fresh medium and transferred to fresh flasks. […] The supernatant was decanted and cells washed in 50 ml of HBSS prewarmed to 37° C. Cells were again pelleted at 300× g for 10 minutes and resuspended in prewarmed HBSS to a final cell density of approximately 1.5×10^6 cells/ml. 1 ml aliquots of cell suspension were transferred to 1.5 ml microcentrifuge tubes or 24-well multidishes (Nunclon). […] All assays were performed in triplicate. […] Control samples contained ethanol vehicle instead of arachidonic acid. Samples were again gently mixed and incubated for a further 10 minutes at 37° C. […] For U-937 cells, reactions in multiwell dishes or microcentrifuge tubes were stopped by the addition of 100 μl of 1N HCl, with mixing. Samples assayed in 24-multidishes were then transferred to microcentrifuge tubes, and all samples were frozen on dry ice. Samples were stored at -20° C. prior to analysis of PGE2 levels. […] Samples were then mixed by vortexing, and PGE2 levels measured using a PGE2 enzyme immunoassay (CAYMAN) according to the manufacturers instructions. The plating, washing and colour development steps of this procedure were automated using a BIOMEK 1000 (BECKMAN). […] Levels of PGE2 were calculated from the standard curve determined using BECKMAN IMMUNOFIT EIA/RIA analysis software.
Molecule,143.98.2 % Inhibition ([1]; drug 100 nM) [%],143.98.2 % Inhibition ([1]; drug 3 uM) [%],U-937 % Inhibition ([2]; drug 100 nM) [%],U-937 % Inhibition ([2]; drug 3 uM) [%],inhibition at 0.1 µM ([2]; drug 100 nM) [%],inhibition at 3 µM ([2]; drug 3 uM) [%],also measured
O=C(O)c1ccccc1Nc1cccc(C(F)(F)F)c1 [Flufenamic],16,36,5,0,,,
CC(=O)c1ccc(NS(C)(=O)=O)c(Oc2ccc(F)cc2F)c1 [FK-3311],20,26,0,0,,,
IL1-β: human recombinant IL1-β (R and D systems Inc.),,,,,,,levels of PGE2 synthesis by osteosarcoma 143 cells in response to arachidonic acid (osteosarcoma 143 cells): increased
CS(=O)(=O)Nc1cc2c(cc1Oc1ccc(F)cc1F)C(=O)CC2 [Flosulide],,,,,0,0,
CC(C(=O)O)c1ccc(-c2ccccc2)c(F)c1 (centres unmarked) [Fluribprofen],,,57,89,,,
CS(=O)(=O)c1ccc(-c2cc(Br)sc2-c2ccc(F)cc2)cc1 [DuP-697],,,,,6,48,
Cc1cc(CC(=O)O)n(C)c1C(=O)c1ccc(Cl)cc1 [Zomipirac],45,66,30,67,,,
CSc1ccc(/C=C2/C(C)=C(CC(=O)O)c3cc(F)ccc32)cc1 [Sulindac sulfide],,,,,0,4,
CS(=O)(=O)Nc1ccc([N+](=O)[O-])cc1OC1CCCCC1 [NS-398],,,,,0,0,U-937 PGE2 ([3]; sample 0.3 nM): 18.3 ng/10^6 cells; U-937 PGE2 ([3]; sample 1.0 nM): 17.7 ng/10^6 cells; U-937 PGE2 ([3]; sample 3.0 nM): 18.3 ng/10^6 cells; U-937 PGE2 ([3]; sample 10 nM): 20.4 ng/10^6 cells; U-937 PGE2 ([3]; sample 30.0 nM): 17.7 ng/10^6 cells; U-937 PGE2 ([3]; sample 100 nM): 18.9 ng/10^6 cells
